These results are taken from PMC11788822, “Uncovering the potent antimicrobial activity of squaramide based anionophores – chloride transport and membrane disruption” (Chemical Science, 2025).

What all share (format): cell-based, Staphylococcus aureus
In assay [1] the test system is S. aureus. Briefly: Growth inhibition assay, S. aureus. The conditions noted are these: Staphylococcus aureus, 24 h, growth (OD 600 nm) relative to control, 37 °C. The procedure:
To determine IC50/80 values, growth (optical density) of S. aureus, methicillin-resistant S. aureus (MRSA), P. aeruginosa, and K. pneumoniae when treated with a range of concentrations of each active compound in vitro was measured at 600 nm after a 24 h incubation period at 37 °C. Each compound was studied for activity below […], and those showing little activity above 200 μM, were noted as such, and omitted from further study.
Staphylococcus aureus culture conditions
S. aureus (ATCC33951) was cultured at 37 °C in Nutrient broth (Oxoid), in an orbital shaker at 200 rpm. Stocks were kept on nutrient agar, stored at 4 °C for up to 2 months, or as glycerol stocks (50/50 glycerol:culture), stored at -70 °C indefinitely. […]
Bacterial cultures were brought to early stationary phase overnight, in nutrient broth (containing 25/50 µg/mL Ampicillin for MRSA/K. pneumoniae, respectively) at 37 °C. Cultures were diluted to an OD600 = 0.01. Aliquots of Culture (100 µl) were added to 100 µL serially diluted compound (200 – 0.78 µM) in nutrient broth in a 96-well plate (Sarstedt, Germany).
Plates were incubated at 37 °C for 24 h and growth was measured at 600 nm, where growth was measured and represented relative to control. […]

The subject of assay [2] is S. aureus. In words: Modified MTT assay of cellular respiration. The settings on record: HBSS, Cl− free HBSS or Na+ free HBSS buffer, 5 h treatment. The source says: To further probe the relationship between anion homeostasis and antimicrobial effect, a modified MTT assay was used next to monitor disruption of cellular respiration in the presence of 1, 2, or 4 either with abundant Cl^− and Na^+, in the absence of Cl^−, or in the absence of Na^+ (Fig. 3). […] Chew and co-workers have reported on the behaviours, and dynamics of adamantylamines in the lipid bilayers, and discussed that adamantylamines show a preferential accumulation in the interfacial layer of lipid bilayers[46] and thus we suspected that these compounds, with an identical pharmacophore may behave in a similar manner accumulating in lipid bilayers of bacterial membranes.[47,48] […]
or measured over the course of 2 hrs, starting at T0 (upon addition of compound).
Alternatively, 200 µL aliquots of cell suspension were added to a 96-well plate, to the desired quantity, and were either untreated (control), or treated with the compound of interest for 5 mins, whereafter fluorescence was read using a BMG Labtech Clariostar Plus platereader, and plotted relative to control.
From an overnight culture of S. aureus brought to stationary phase (OD600 = ~1.0), was taken samples which were diluted to an OD600 = ~0.2 in either Hank’s buffered salt solution, Cl- free HBSS buffer, or Na+ free buffer. Samples were treated with the respective compound for 5 h at 37 0C. Subsequently, Cell densities for each of the samples were standardised to an OD600 = 0.15, in the relevant buffer system. To each sample was added Triphenyl Tetrazolium Chloride (TTC), to a final concentration of 0.5 mg/mL. 100 µL of each sample was placed into the wells of a 96-well place in 8 replicates. Samples were incubated at 37 0C for 18 h, and subsequently supernatant was removed from each well, taking care as to not disturb the Formazan precipitate. To each well was then added 100 µL DMSO, with repeated pipetting to solubilise precipitate. Samples were read using a microplate reader at 550 nm & plotted as percentage cell viability relative to control. […]

Assay [3] deals with S. aureus. Briefly: DNA release luminescence assay with Ru(phen)2(dppz)Cl2. The conditions noted are these: 100 μM, 1 h, vs untreated control. The method, then: In addition to assays monitoring the uptake of PI, luminescence assays to monitor the release of cellular components such as DNA/RNA were also undertaken. Using Ru(phen)2(dppz)Cl2, which acts as a highly sensitive, “off-to-on” emissive probe for nucleic acids (NA),[49–51] we assessed the levels of NA release from cells upon treatment with 1, 2, and 4 (100 μM) by comparing emission intensity of the complex in the absence of nucleic acids, to untreated controls, and treated samples (Fig. 4C). When Ru(phen)2(dppz)Cl2 was added to sterile nutrient broth, which lacks nucleic acids, emission from the ^3MLCT band (ca. 620 nm) is highly quenched, however, when added to culture supernatant in the absence of treatment with 1, 2, or 4 we see a large increase in ^3MLCT derived luminescence indicating the presence of nucleic acids in the solution. This initial luminescence increase is unsurprising, as S. aureus is known to release DNA under active growth conditions, in the form of eDNA,[52] which acts as a chemical messenger for microbial species.[53] […] This additional increase in luminescence indicates a heightened level of extracellular NA and may be another indication of membrane disruption. […] Indeed, a significant increase in luminescence would not be expected, as the release of large architectures such as those observed for nucleic acids is slow, due to the bulk of the biomolecules.
1 mL aliquots of S. aureus cultures brought to early stationary phase overnight were brought to an OD600 = 0.2 and 100 µL of this suspension was added to 96 well plates, whereafter 100 µL of PBS containing; no compound (- control), or compound (2x desired concentration) was added to the suspension. The resultant mixture was incubated at 37 °C for 2 hr whereafter fluorescence intensity from PI (DNA bound form) was quanitified (λ exc/em = 535/615 nm) using a Clariostar plate reader. In the case of time course experiments, Measurement cycles were set for two hours, following addition of the respective compound (T0). Fluorescence was subsequently plotted as F/F0.
DNA release luminescence assay […]

In assay [1], `O=c1c(Nc2cc(C(F)(F)F)cc(C(F)(F)F)c2)c(NC23CC4CC(CC(C4)C2)C3)c1=O` [Compound 1] registered an IC80 of roughly 200 µM and an IC50 of 0.781 µM. Also, the “effect on cellular respiration (MTT)” value in assay [2] is “concentration dependent decrease in cellular respiration”. Besides, the “Ru(phen)2(dppz)Cl2 luminescence in culture supernatant (nucleic acid release)” value (shortened to “Ru(phen)2(dppz)Cl2 luminescence”) in assay [3] is on record as “further increased”.

In assay [1], `O=c1c(Nc2ccc(Cl)c(Cl)c2)c(NC23CC4CC(CC(C4)C2)C3)c1=O` [Compound 2] gave an IC80 of 250 µM and an IC50 of 62.5 µM. The “effect on cellular respiration (MTT)” value in assay [2] is “concentration dependent decrease in cellular respiration”. For the same compound, the “Ru(phen)2(dppz)Cl2 luminescence” value in assay [3] was “further increased”.

For `O=c1c(Nc2ccc([N+](=O)[O-])cc2)c(NC23CC4CC(CC(C4)C2)C3)c1=O` [Compound 4], the midpoint of inhibition in assay [1], the IC50, lay at 170 µM. In addition, the “effect on cellular respiration (MTT)” value in assay [2] was “concentration dependent decrease in cellular respiration”. The “Ru(phen)2(dppz)Cl2 luminescence” value in assay [3] is “further increased”.
